This passage reports EC50 and inhibition results from patent publication US10703748B2, “Diazanaphthalen-3-yl carboxamides and preparation and use thereof” (Samumed, LLC, priority 2017, dated 2020).

One assay has as its system IL-6. Nature of the assay: IL-6 inhibition in LPS-stimulated human peripheral blood mononuclear cells (HTRF). As to conditions: Homo sapiens, PBMC; for EC50: 22 h; for inhibition at 10 µM: read-out: percentage in parentheses after EC50 >10. (In general: In TR-FRET formats the signal depends on donor and acceptor labels being close together.)
Assay [1] has as its system secreted cytokines TNFα, IL-6 and KC-GRO. Nature of the assay: Secreted cytokines in Lipopolysaccharide-stimulated BV-2 cells (Table 9 does not say which cytokine). Particulars: Mus musculus, BV-2, 5 h; read-out: EC50. In kind it is cell-based, mouse.
Assay [2] concerns Tau phosphorylation at Ser396 (pSer396). Kind of assay: Tau phosphorylation at Ser396 (pSer396) in SH-SY5Y cells, ELISA / western blot.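 Also: decrease in pSer396 Tau measured in lysates of treated cells by colorimetric ELISA or chemiluminescent western blot, same pSer396 antibody for both.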 In kind it is cell-based, human. Particulars: Homo sapiens; SH-SY5Y cells, overnight (16-18 h); read-out: pSer396 Tau EC50. Background: ELISA stands for enzyme-linked immunosorbent assay.
Method: Two days before treatment, cells were seeded onto 96 well plates at 5×10^4 cells/well.
The above synthesized compounds were screened using the cell assay procedure to assess decrease Tau phosphorylation at Ser396 (pSer396) described below.
Cells were lysed with RIPA buffer complemented with phosphatase and protease inhibitors then lysates were spun down at 12,000 g for 10 min to remove any cellular debris.
The target of a further assay is DYRK1A kinase (Homo sapiens, UniProt Q13627). Kind of assay: DYRK1A kinase activity (Ser/Thr 18 peptide Z-lyte FRET assay).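 Also: kinase activity read as coumarin/fluorescein emission ratio after development step, with unphosphorylated and phosphorylated peptide forms setting 0% and 100% controls, values from dose-response curves.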 Particulars: recombinant DYRK1A, 30 μM ATP, one hour at room temperature. In kind it is biochemical.
For another assay, the target named is GSK3β kinase (Homo sapiens, UniProt P49841). Kind of assay: GSK3β kinase activity (Ser/Thr 09 peptide Z-lyte FRET assay). In kind it is biochemical. Particulars: recombinant kinase, 46 μM ATP, one hour at room temperature; read-out: EC50.
The test system of assay [3] is SW480 colon carcinoma cells. Nature of the assay: Cell viability assay (CellTiter-Glo). As to conditions: Homo sapiens; for EC50: SW480, 96 h; for inhibition at 10 µM: SW480, read-out: percent inhibition at 10 μM. On the technique in general: ATP-based viability assays read luminescence as a measure of living cells.
In assay [4] the test system is Wnt-responsive Sp5-Luc reporter in SW480 colon carcinoma cells. Kind of assay: Screening assay for Wnt activity (Sp5-Luc reporter gene assay). As to conditions: Homo sapiens; for EC50: SW480; for inhibition at 10 µM: SW480, read-out: percent inhibition at 10 μM.
Assay [5] relates to α-smooth muscle actin (aSMA) positive LL29 cells. Nature of the assay: Inhibition of the fibrotic process: αSMA staining in TGF-β1 treated LL29 fibroblasts from IPF patients. As to conditions: Homo sapiens, Fibroblast; for EC50: 96 h; for inhibition at 10 µM: read-out: percentage in parentheses after EC50 >10.

Molecules are shown by their SMILES. Where only a bound is given, the exact number is not on record here.

Chain of GSK3β kinase (P49841 whole entry): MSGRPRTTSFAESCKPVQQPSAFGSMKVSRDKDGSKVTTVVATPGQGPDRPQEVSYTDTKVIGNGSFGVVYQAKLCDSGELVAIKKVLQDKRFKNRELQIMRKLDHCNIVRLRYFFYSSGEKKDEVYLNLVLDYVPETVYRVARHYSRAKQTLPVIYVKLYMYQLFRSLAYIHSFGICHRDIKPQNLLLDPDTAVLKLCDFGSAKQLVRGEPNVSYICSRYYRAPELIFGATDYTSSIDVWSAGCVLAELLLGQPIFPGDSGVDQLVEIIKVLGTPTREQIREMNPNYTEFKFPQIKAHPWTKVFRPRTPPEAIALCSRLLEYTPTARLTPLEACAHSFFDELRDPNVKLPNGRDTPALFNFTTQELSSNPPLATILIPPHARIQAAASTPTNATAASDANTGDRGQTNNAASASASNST

On to `O=C(Nc1cc2cc(-c3cnco3)ncc2cn1)C1CCN(C(=O)CN2CCCC2)CC1` [Compound 4159, N-(6-(Oxazol-5-yl)-2,7-naphthyridin-3-yl)-1-(2-(pyrrolidin-1-yl)acetyl) piperidine-4-carboxamide], for which the EC50 – broadly, the concentration that produces a half-maximal response – was more than 10000 nM in the assay on IL-6; 859 nM in assay [1]; 989 nM in assay [2]; 4 nM at DYRK1A kinase; 72 nM at GSK3β kinase; 8440 nM in assay [3]. Moreover, the EC50 is 972 nM in assay [4] and 347 nM in assay [5]. In addition, the inhibition at 10 µM with IL-6 was found to be 10.1%.
Regarding `Cn1cc(-c2ccc3cnc(NC(=O)C4CCN(CC5(C(F)(F)F)CC5)CC4)nc3c2)nn1` [Compound 1253, N-(7-(1-Methyl-1H-1,2,3-triazol-4-yl)quinazolin-2-yl)-1-((1-(trifluoromethyl)cyclopropyl)methyl)piperidine-4-carboxamide], the concentration giving a half-maximal response (EC50) with IL-6 is more than 10000 nM; in assay [1], more than 10000 nM; in assay [2], 188 nM; at DYRK1A kinase it was 13 nM; at GSK3β kinase, 15 nM; in assay [3] it was more than 10000 nM. The EC50 in assay [4] is 1180 nM; in assay [5], more than 10000 nM. The figures for the inhibition at 10 µM (in the assay with IL-6; in assay [3]; in assay [5]) were 4.4%, 17.1% and 47.2%, respectively.
Turning to `Cn1cc(-c2cnc3cnc(NC(=O)C4CC4)cc3c2)cn1` [Compound 2722, N-(3-(1-Methyl-1H-pyrazol-4-yl)-1,7-naphthyridin-6-yl) cyclopropanecarboxamide], the EC50 with IL-6 is 8900 nM; in assay [1], 822 nM; in assay [2], 6010 nM; on DYRK1A kinase, 23 nM; on GSK3β kinase, 326 nM; in assay [3] it was more than 10000 nM. For the same compound, the EC50 in assay [4] was more than 10000 nM; in assay [5], 1010 nM. The inhibition at 10 µM was determined as 31% in assay [3] and 13.7% in assay [4].
Regarding `Cn1cc(-c2ccc3cnc(NC(=O)C4CCNCC4)cc3n2)cn1` [Compound 11, N-(2-(1-Methyl-1H-pyrazol-4-yl)-1,6-naphthyridin-7-yl)piperidine-4-carboxamide], the EC50 in the assay with IL-6 came to 2830 nM; in assay [1] it was 926 nM; in assay [2], 3500 nM; at DYRK1A kinase, 14 nM; on GSK3β kinase, 101 nM; in assay [3] it was 5800 nM. For the same compound, the EC50 was 3190 nM in assay [4] and 2540 nM in assay [5].
With `CNC(=O)c1ccc(C(=O)Nc2ncc3ccc(-c4cn(C)nn4)cc3n2)cn1` [Compound 1278, N^2-Methyl-N^5-(7-(1-methyl-1H-1,2,3-triazol-4-yl)quinazolin-2-yl)pyridine-2,5-dicarboxamide], the EC50 in the assay with IL-6 is more than 10000 nM; in assay [1], 7200 nM; in assay [2] it was 5050 nM; at DYRK1A kinase, 7 nM; at GSK3β kinase, 134 nM; in assay [3], 8530 nM. In addition, the EC50 is 3700 nM in assay [4] and more than 10000 nM in assay [5]. The values for the inhibition at 10 µM (in the assay on IL-6; in assay [5]) were 3% and 35.9%, respectively.
For `CN(C)[C@H]1CC[C@H](C(=O)Nc2ncc3ccc(-c4cncs4)cc3n2)CC1` [Compound 1518, trans-4-(Dimethylamino)-N-(7-(thiazol-5-yl)quinazolin-2-yl)cyclohexane-1-carboxamide], the 50% effective concentration (EC50) in the assay on IL-6 is more than 10000 nM; in assay [1], 1080 nM; in assay [2], 5400 nM; at DYRK1A kinase it was 14 nM; on GSK3β kinase it was 253 nM; in assay [3] it was more than 10000 nM. Also, the values for the EC50 in assay [4] and in assay [5] were more than 10000 nM and 2610 nM, respectively. Moreover, the results for the inhibition at 10 µM (in the assay on IL-6; in assay [3]; in assay [4]) were 30.1%, 25.3% and 24.8%, respectively.
In the case of `CN1CCN(Cc2cccc(C(=O)Nc3cc4cc(-c5cnn(C)c5)ncc4cn3)c2)CC1` [Compound 3799, N-(6-(1-Methyl-1H-pyrazol-4-yl)-2,7-naphthyridin-3-yl)-3-((4-methylpiperazin-1-yl)methyl)benzamide], the EC50 with IL-6 is more than 10000 nM; in assay [1] it was 79 nM; in assay [2], 3640 nM; on DYRK1A kinase, 12 nM; at GSK3β kinase, 243 nM; in assay [3] it was 3660 nM. Also, the half-maximal effective concentration (EC50) was found to be 2120 nM in assay [4] and 2580 nM in assay [5]. Moreover, the inhibition at 10 µM in the assay on IL-6 was found to be 5.3%.
As for `Cn1cc(-c2cc3cc(NC(=O)C4CCN(Cc5ncco5)CC4)ncc3cn2)cn1` [Compound 3723, N-(6-(1-Methyl-1H-pyrazol-4-yl)-2,7-naphthyridin-3-yl)-1-(oxazol-2-ylmethyl)piperidine-4-carboxamide], the concentration for a half-maximal effect (EC50) in the assay on IL-6 was more than 10000 nM; in assay [1], 94 nM; in assay [2], 252 nM; on DYRK1A kinase, 2 nM; on GSK3β kinase it was 10 nM; in assay [3] it was more than 10000 nM. Besides, the EC50 in assay [4] was 842 nM; in assay [5], more than 10000 nM. Besides, the inhibition at 10 µM with IL-6 worked out at 2.8%; in assay [3], 43.7%; in assay [5], 9.1%.
On to `Cn1cc(-c2ccc3cnc(NC(=O)C4CC4)nc3c2)cn1` [Compound 909, N-(7-(1-Methyl-1H-pyrazol-4-yl)quinazolin-2-yl)cyclopropanecarboxamide], for which the concentration for a half-maximal effect (EC50) was 4860 nM in the assay on IL-6; 1900 nM in assay [1]; 372 nM in assay [2]; 13 nM on DYRK1A kinase; 25 nM at GSK3β kinase; more than 10000 nM in assay [3]. The EC50 in assay [4] is more than 10000 nM; in assay [5], 1380 nM. The inhibition at 10 µM in assay [3] was 45.6%; in assay [4] it was 56.1%.
For the compound `O=C(Nc1cc2cc(-c3cnco3)cnc2cn1)[C@H]1CC[C@H](CO)CC1` [Compound 4610], the concentration giving a half-maximal response (EC50) in the assay with IL-6 is more than 10000 nM; in assay [1], 261 nM; in assay [2], more than 10000 nM; at DYRK1A kinase, 29 nM; on GSK3β kinase, more than 10000 nM; in assay [3], more than 10000 nM. Besides, the EC50 in assay [4] was more than 10000 nM; in assay [5], 4190 nM. Further, the figures for the inhibition at 10 µM (in the assay on IL-6; in assay [3]; in assay [4]) were 10.3%, 24.6% and 9.1%, respectively.
`CN(C)[C@H]1CC[C@H](C(=O)Nc2cc3cc(-c4cncs4)ncc3cn2)CC1` [Compound 4239, trans-4-(dimethylamino)-N-(6-(thiazol-5-yl)-2,7-naphthyridin-3-yl) cyclohexane-1-carboxamide]: the EC50 is more than 10000 nM in the assay on IL-6; 1700 nM in assay [1]; 491 nM in assay [2]; 5 nM at DYRK1A kinase; 187 nM at GSK3β kinase; more than 10000 nM in assay [3]. For the same compound, the EC50 in assay [4] and in assay [5] was more than 10000 nM throughout. For the same compound, the inhibition at 10 µM in the assay with IL-6 was found to be 10.5%; in assay [3], 27.6%; in assay [4] it was 41.9%; in assay [5], 50%.
